US9056844B2, “4-substituted-3-benzyloxy-bicyclo[3.1.0]hexane compounds as mGluR 2/3 antagonists” (Eli Lilly and Company, priority 2010, dated 2015)

Columns and labels:
[1] = system: male NIH-Swiss mice; experiment: Forced-swim test in mice (mFST); type: in vivo, mouse
Source text: Forced-Swim Test in Mice (mFST)
mFST is an established in vivo assay for antidepressant activity (Li et al. J Pharmacol Exp Ther. 319(1):254-9, 2006.). […] The mFST was used to evaluate potential antidepressant-like activity of novel mGlu2/3 antagonists essentially as described in previously published methods (see for example, Li et al. J Pharmacol Exp Ther. 319(1):254-9, 2006.). Briefly, male NIH-Swiss mice (Harlan Sprague-Dawley, Indianapolis, Ind.) weighing between 25-30 g are used. Group housed animals are removed from the vivarium to the testing area in their own cages and allowed to adapt to the new environment for at least 1 hour before testing. Compounds where R^1 and R^2 are both hydrogen are dissolved in water with minimal NaOH added for dissolution and are administered i.p. Compounds where R^1 and/or R^2 are other than hydrogen are prepared on the day of use in 2.0-2.5% N-methyl-pyrrolidinone and then suspended in 1% HEC, 0.25% Tween 80, and 0.05% Dow antifoam, and administered orally. Mice are placed in a cylinder (diameter: 10 cm; height: 25 cm) filled with 6 cm of water (22-25° C.) for 6 min. The duration of immobility during the last 4 min. of the 6 min. period of the test was scored. A mouse is recorded as immobile when floating motionless or making only those movements necessary to keep its head above water.

[2] = system: mGlu2+/+ mice; experiment: mFST in mGlu2+/+ littermate mice; type: in vivo, mouse; settings: 30 mg/kg, po, 120 min prior
[3] = system: mice; experiment: mFST with SSRI (fluoxetine combination); type: in vivo, mouse
Method: mFST is an established in vivo assay for antidepressant activity (Li et al. J Pharmacol Exp Ther. 319(1):254-9, 2006.). […] J Pharmacol Exp Ther. 319(1):254-9, 2006.). Briefly, male NIH-Swiss mice (Harlan Sprague-Dawley, Indianapolis, Ind.) weighing between 25-30 g are used. Group housed animals are removed from the vivarium to the testing area in their own cages and allowed to adapt to the new environment for at least 1 hour before testing. Compounds where R^1 and R^2 are both hydrogen are dissolved in water with minimal NaOH added for dissolution and are administered i.p. […] Mice are placed in a cylinder (diameter: 10 cm; height: 25 cm) filled with 6 cm of water (22-25° C.) for 6 min. The duration of immobility during the last 4 min. of the 6 min. period of the test was scored. A mouse is recorded as immobile when floating motionless or making only those movements necessary to keep its head above water. The compounds of the invention may also be tested in combination with other compounds useful for the treatment of depressive disorders, as for example SSRI's, for their ability to enhance the antidepressant-like effects over that of either compound alone.

[4] = Brain and plasma levels of active di-acid in the fluoxetine combination study; type: in vivo, mouse; settings: combination with fluoxetine versus alone
Source text: The compounds of the invention may also be tested in combination with other compounds useful for the treatment of depressive disorders, as for example SSRI's, for their ability to enhance the antidepressant-like effects over that of either compound alone.

[5] = system: male Wistar rats; experiment: Wakefulness and behavioral monitoring in rats (EEG/EMG/LMA); type: in vivo, rat; settings: for Locomotor Activity Intensity, Mean (difference from vehicle controls): averaged over the first 7 hr post-treatment; for Cumulative Time Awake 8-19 hours, Mean (difference from vehicle controls): rebound hypersomnolence measure
Method: Wakefulness and Behavioral Monitoring in Rats:
Representative compounds of the present invention are tested in rats for their ability to increase the amount of time in a state of wakefulness without undesired effects such as inhibition of REM sleep, waking motor impairment (disproportionate hyper- or hypolocomotion), and/or rebound hypersomnia Test animals are continuously monitored by electro-encephalograms (EEG), electromyograms (EMG), and motion to measure cumulative time awake, rebound hypersomnia, and locomotor activity intensity during wakefulness. Methods for such studies are known in the art (see for example methods described in Edgar D M, Seidel W F. Modafinil induces wakefulness without intensifying motor activity or subsequent rebound hypersomnolence in the rat. J Pharmacology & Experimental Therapeutics 1997; 283: 757-769; van Gelder R N, Edgar D M, Dement W C. Real-time automated sleep scoring: validation of a microcomputer-based system for mice. Sleep 1991, 14: 48-55; and Gross B A, Walsh C M, Turakhia A A, Booth V, Mashour G A, Poe G R. Open-source logic-based automated sleep scoring software using electrophysiological recordings in rats. J Neurosci Methods. 2009; 184(1):10-8.) Studies are conducted as follows:
Adult, male Wistar rats (approximately 270-300 g at time of surgery) are surgically fitted for chronic recording of EEG, EMG, body temperature, and motion as follows: Rats are surgically prepared with a cranial implant consisting of four stainless steel screws for EEG recording (two frontal [3.9 mm anterior from bregma, and ±2.0 mm mediolaterally] and two occipital [6.4 mm posterior from bregma, ±5.5 mm mediolaterally]), and with two Teflon-coated stainless steel wires for EMG recording (positioned under the nuchal trapezoid muscles). All leads are soldered to a miniature connector (Microtech, Boothwyn, Pa.) prior to surgery. The implant assembly is affixed to the skull by the combination of the stainless steel EEG recording screws, cyanoacrylate applied between the implant connector and skull, and dental acrylic. Body temperature and locomotor activity is monitored via a miniature transmitter (Minimitter PDT4000G, Philips Respironics, Bend, Oreg.) surgically placed into the abdomen. At least 3 weeks are allowed for recovery.
Each rat is housed individually within a microisolator cage modified with an inserted polycarbonate filter-top riser to allow more vertical headroom. A flexible cable that minimally restricts movement is connected at one end to a commutator affixed to the cage top and at the other end to the animal's cranial implant. Each cage is located within separate, ventilated compartments of a stainless steel sleep-wake recording chamber. Food and water are available ad libitum and the ambient temperature is maintained at about 23±1° C. A 24-hr light-dark cycle (LD 12:12) using fluorescent light is maintained throughout the study. Relative humidity averages approximately 50%. Animals are undisturbed for at least 30 hrs before and after each treatment.
Compounds where R^1 and R^2 are both hydrogen are dissolved in water with minimal NaOH added for dissolution and are administered i.p in a volume of 1.0 mL per kg body weight. Compounds where R^1 and/or R^2 are other than hydrogen are administer p.o. in a volume of 2 mL per kg body weight in one of two alternative vehicles: i) 2.5% N-methyl-2-pyrrolidinone in hydroxyethylcellulose; or ii) 10% acacia with 0.05% Dow Corning® Antifoam in water. The vehicle or one of the compound dose levels is administered pseudo-randomly such that no rat receives the same treatment twice, and no rat receives more than two of the 8 treatments in any one study. Each rat is removed from its cage for about a minute to be weighed and treated. At least 6 days “washout” period precede and follow each treatment.
Sleep and wakefulness discrimination may be automated (e.g., Van Gelder et al. 1991; Edgar et al. 1997, Winrow et al., 2010; Gross et al., 2009). […]

CC(C)OC(=O)OCOC(=O)[C@H]1[C@@H]2[C@H](O)[C@@H](OCc3ccc(Cl)c(Cl)c3)[C@@](N)(C(=O)OCOC(=O)OC(C)C)[C@H]12.Cl [Example 10, Bis({[(1-methylethoxy)carbonyl]oxy}methyl) (1S,2R,3S,4S,5R,6R)-2-amino-3-[(3,4-dichlorobenzyl)oxy]-4-hydroxybicyclo[3.1.0]hexane-2,6-dicarboxylate hydrochloride]
ED60 ([1]; Mus musculus, po, immobility in last 4 min of 6 min): 22.1 mg/kg | Maximal Decrease (1 − compound/control) * 100% ([1]; p.o., immobility time): 50.5% | immobility time [2]: decrease immobility time | antidepressant-like effect in combination with fluoxetine ([3]; Example 10 17 mg/kg p.o. with fluoxetine 10 mg/kg i.p.): significantly increase the antidepressant-like effect over that of either compound alone | Maximal Decrease (1 − compound/control) * 100% ([3]; Example 10 17 mg/kg p.o., fluoxetine 10 mg/kg i.p., alone or combined): 24.5% | Immobilization Time ([3]; Example 10 17 mg/kg p.o., fluoxetine 10 mg/kg i.p., alone or combined, vehicle 174): 105 s | brain and plasma levels of the active di-acid moiety [4]: no increase in exposure levels | Cumulative Time Awake first 7 hours, Mean (difference from vehicle controls) ([5]; 10 mg/kg PO): 20.4 min | Locomotor Activity Intensity, Mean (difference from vehicle controls) ([5]; 10 mg/kg PO): 2.7 counts of LMA per minute of EEG-defined wakefulness | Cumulative Time Awake 8-19 hours, Mean (difference from vehicle controls) ([5]; 10 mg/kg PO): 15.2 min | Cumulative Time Awake first 7 hours, Mean (difference from vehicle controls) ([5]; 30 mg/kg PO): 48.8 min | Locomotor Activity Intensity, Mean (difference from vehicle controls) ([5]; 30 mg/kg PO): 0.5 counts of LMA per minute of EEG-defined wakefulness | Cumulative Time Awake 8-19 hours, Mean (difference from vehicle controls) ([5]; 30 mg/kg PO): 25.6 min | Cumulative Time Awake first 7 hours, Mean (difference from vehicle controls) ([5]; 60 mg/kg PO): 64.7 min | Locomotor Activity Intensity, Mean (difference from vehicle controls) ([5]; 60 mg/kg PO): 4.2 counts of LMA per minute of EEG-defined wakefulness | Cumulative Time Awake 8-19 hours, Mean (difference from vehicle controls) ([5]; 60 mg/kg PO): 34.7 min
